Assay: Inhibition of MKK7 beta1 S273D/T275D double mutant (unknown origin) using JNK1 K55M mutant as substrate by ADP-Glo assay
Parameters: species or system Homo sapiens

Row | IC50 [µM] | SMILES
1 | 0.666 | C=CC(=O)N1CCC[C@@H](n2nc(-c3ccc(C(F)(F)F)cc3)c3c(N)ncnc32)C1
2 | 0.159 | C=CC(=O)N1CCC[C@@H](n2nc(-c3cccc(C(F)(F)F)c3)c3c(N)ncnc32)C1
3 | 0.154 | C=CC(=O)N1CCC[C@@H](n2nc(-c3ccc(F)cc3)c3c(N)ncnc32)C1
4 | 0.0086 | C=CC(=O)N1CCC[C@@H](n2nc(-c3ccc(O)cc3)c3c(N)ncnc32)C1
5 | > 10 | CCC(=O)N1CCC[C@@H](n2nc(-c3ccccc3)c3c(N)ncnc32)C1
6 | 1.57 | C=CC(=O)N1CCC[C@@H](n2nc(C#CC3CCCC3)c3c(N)ncnc32)C1
7 | > 10 | CCC(=O)N1CCC[C@@H](n2nc(-c3cccc(C(F)(F)F)c3)c3c(N)ncnc32)C1
8 | 0.113 | C=CC(=O)N1CCC[C@@H](n2nc(-c3ccc4ccccc4c3)c3c(N)ncnc32)C1
9 | 0.631 | C=CC(=O)N1CCC[C@@H](n2ncc3c(N)ncnc32)C1
10 | 0.149 | C=CC(=O)N1CCC[C@@H](n2nc(-c3cccc4ccccc34)c3c(N)ncnc32)C1
11 | 0.307 | C=CC(=O)N1CCC[C@@H](n2nc(C3CC3)c3c(N)ncnc32)C1
12 | 0.413 | C=CC(=O)N1CCC[C@@H](n2nc(-c3ccccc3)c3c(N)ncnc32)C1
13 | 2.61 | CN(C)C/C=C/C(=O)N1CCC[C@@H](n2nc(-c3cccc(C(F)(F)F)c3)c3c(N)ncnc32)C1
14 | > 10 | CCC(=O)N1CCC[C@@H](n2nc(-c3ccc(F)cc3)c3c(N)ncnc32)C1
15 | 0.019 | C=CC(=O)N1CCC[C@@H](n2nc(-c3cnc4[nH]ccc4c3)c3c(N)ncnc32)C1
16 | > 10 | N#C/C(=C\C1CC1)C(=O)N1CCC[C@@H](n2nc(-c3cnc4[nH]ccc4c3)c3c(N)ncnc32)C1
17 | > 10 | N#C/C(=C\C1CC1)C(=O)N1CCC[C@@H](n2nc(-c3cccc(C(F)(F)F)c3)c3c(N)ncnc32)C1

Row | SMILES | IC50 [µM]
18 | C=CC(=O)N1CCC[C@@H](n2nc(-c3cn(C)c4ccccc34)c3c(N)ncnc32)C1 | 0.302
19 | C=CC(=O)N1CCC[C@@H](n2nc(-c3ccc(Oc4ccccc4)cc3)c3c(N)ncnc32)C1 [IBRUTINIB] | 0.078
